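Briefly, cells in 96-well plates were exposed to five compound concentrations for 48 h, and endpoints were estimated by linear interpolation. The concentration for 50% growth inhibition is given as GI50.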 Activity calls are given as the source filed them. No stated cut-off is given here; in the data, active = GI50 up to about 1.1 µM and inactive = higher.
Assays:
Test in all cases: growth of human tumour cells (NCI), 48 h
[1] = test system: A498
[2] = test system: CAKI-1
[3] = test system: HCC 2998
[4] = test system: HCT-116
[5] = test system: HOP-92
[6] = test system: HT-29
[7] = test system: MDA-MB-231
[8] = test system: MOLT-4
[9] = test system: Malme-3M
[10] = test system: NCI-H23
[11] = test system: OVCAR-5
[12] = test system: OVCAR-8
[13] = test system: RPMI-8226
[14] = test system: SF-295
[15] = test system: SK-MEL-5
[16] = test system: SNB-75
[17] = test system: SR
[18] = test system: SW-620
[19] = test system: BT-549
[20] = test system: RXF 393

Measured: GI50

O=C(/C=C/c1ccc(Cl)cc1)Oc1ccc(/C=C2\CCCCC2=O)cc1
inactive: [1] > 100 µM | [2] > 100 µM | [3] > 100 µM | [4] > 100 µM | [5] > 100 µM | [6] 23 µM | [7] > 100 µM | [8] 28.8 µM | [9] > 100 µM | [10] > 100 µM | [11] > 100 µM | [12] > 100 µM | [13] > 100 µM | [14] > 100 µM | [15] > 100 µM | [16] > 100 µM | [17] > 100 µM | [18] > 100 µM

CCCCCCCCCC1(N=[N+]=[N-])C(=O)c2ccccc2N(C)C1=O (stereo not drawn)
inactive: [1] 20.8 µM | [19] 28.1 µM | [2] 34.4 µM | [3] 33 µM | [4] 21.1 µM | [5] 20.2 µM | [6] 30.4 µM | [8] 7.13 µM | [9] 28.1 µM | [10] 25.6 µM | [11] 31.9 µM | [13] 39.9 µM | [20] 22.6 µM | [14] 42.2 µM | [15] 13 µM | [16] 29.9 µM | [17] 35.4 µM | [18] 19.3 µM

O=[N+]([O-])c1ccc(Cl)c(C2SCc3nc4ccccc4n32)c1 (stereo not drawn)
inactive: [1] 32.3 µM | [2] 20.1 µM | [3] 71.4 µM | [4] 31.6 µM | [5] 16.1 µM | [6] 36 µM | [8] 24.2 µM | [9] 44.1 µM | [10] 33.2 µM | [11] 27.4 µM | [12] 43.3 µM | [13] 31.2 µM | [20] 33 µM | [14] 32.6 µM | [15] 16.5 µM | [16] 24.9 µM | [17] 32.1 µM | [18] 35 µM

CCCCCN1CCN(c2ncccn2)CC1
inactive: [1] > 100 µM | [2] > 100 µM | [3] > 100 µM | [4] > 100 µM | [5] 48.6 µM | [6] > 100 µM | [7] > 100 µM | [9] > 100 µM | [10] > 100 µM | [11] > 100 µM | [12] > 100 µM | [13] > 100 µM | [20] > 100 µM | [14] > 100 µM | [15] > 100 µM | [16] > 100 µM | [17] > 100 µM | [18] > 100 µM

O=C(NC1CCCC1=O)c1ccccc1 (stereo not drawn)
inactive: [1] 13.7 µM | [2] > 100 µM | [4] > 100 µM | [5] > 100 µM | [6] > 100 µM | [8] > 100 µM | [9] > 100 µM | [10] > 100 µM | [11] > 100 µM | [12] > 100 µM | [20] > 100 µM | [14] > 100 µM | [15] > 100 µM | [16] 31.5 µM | [17] > 100 µM | [18] > 100 µM

— ChEMBL document CHEMBL1201862, “PubChem BioAssay data set” (2004)
